Assay results from ChEMBL document CHEMBL4804281, “STK4 inhibitors for treatment of hematologic malignancies” (2020).
One block for each molecule: values may come before it. Activity calls are given as the source filed them. The rule behind the calls is not given here.

Tests used:
[1] = target: Mitogen-activated protein kinase kinase kinase kinase 3 (Homo sapiens) (UniProt Q8IVH8); test: Inhibition of KHS2 in human NCI-H929 cells at 10 uM by mass spectroscopic analysis relative to control; assay type: cell-based
[2] = target: Casein kinase I isoform alpha (Homo sapiens) (UniProt P48729); test: Inhibition of CK1a in human NCI-H929 cells at 10 uM by mass spectroscopic analysis relative to control; assay type: cell-based
[3] = target: Casein kinase I isoform gamma-3 (Homo sapiens) (UniProt Q9Y6M4); test: Inhibition of CK1g3 in human NCI-H929 cells at 10 uM by mass spectroscopic analysis relative to control; assay type: cell-based
[4] = target: Glycogen synthase kinase-3 alpha (Homo sapiens) (UniProt P49840); test: Inhibition of GSK3A in human NCI-H929 cells at 10 uM by mass spectroscopic analysis relative to control; assay type: cell-based
[5] = target: Glycogen synthase kinase-3 beta (Homo sapiens) (UniProt P49841); test: Inhibition of GSK3B in human NCI-H929 cells at 10 uM by mass spectroscopic analysis relative to control; assay type: cell-based
[6] = target: Scaffold protein ILK (Homo sapiens) (UniProt Q13418); test: Inhibition of ILK in human NCI-H929 cells at 10 uM by mass spectroscopic analysis relative to control; assay type: cell-based
[7] = target: Serine/threonine-protein kinase STK11 (Homo sapiens) (UniProt Q15831); test: Inhibition of LKB1 in human NCI-H929 cells at 10 uM by mass spectroscopic analysis relative to control; assay type: cell-based
[8] = target: Dual specificity mitogen-activated protein kinase kinase 4 (Homo sapiens) (UniProt P45985); test: Inhibition of MAP2K4 in human NCI-H929 cells at 10 uM by mass spectroscopic analysis relative to control; assay type: cell-based
[9] = target: Dual specificity mitogen-activated protein kinase kinase 7 (Homo sapiens) (UniProt O14733); test: Inhibition of MAP2K7 in human NCI-H929 cells at 10 uM by mass spectroscopic analysis relative to control; assay type: cell-based
[10] = target: Mitogen-activated protein kinase kinase kinase 1 (Homo sapiens) (UniProt Q13233); test: Inhibition of MAP3K1 in human NCI-H929 cells at 10 uM by mass spectroscopic analysis relative to control; assay type: cell-based
[11] = target: Ribosomal protein S6 kinase alpha-4 (Homo sapiens) (UniProt O75676); test: Inhibition of MSK2 domain 1 in human NCI-H929 cells at 10 uM by mass spectroscopic analysis relative to control; assay type: cell-based
[12] = target: T1, Serine/threonine-protein kinase 4 (Homo sapiens) (UniProt Q13043); test: Inhibition of MST1 in human NCI-H929 cells at 10 uM by mass spectroscopic analysis relative to control; assay type: cell-based
T1 sequence (whole entry): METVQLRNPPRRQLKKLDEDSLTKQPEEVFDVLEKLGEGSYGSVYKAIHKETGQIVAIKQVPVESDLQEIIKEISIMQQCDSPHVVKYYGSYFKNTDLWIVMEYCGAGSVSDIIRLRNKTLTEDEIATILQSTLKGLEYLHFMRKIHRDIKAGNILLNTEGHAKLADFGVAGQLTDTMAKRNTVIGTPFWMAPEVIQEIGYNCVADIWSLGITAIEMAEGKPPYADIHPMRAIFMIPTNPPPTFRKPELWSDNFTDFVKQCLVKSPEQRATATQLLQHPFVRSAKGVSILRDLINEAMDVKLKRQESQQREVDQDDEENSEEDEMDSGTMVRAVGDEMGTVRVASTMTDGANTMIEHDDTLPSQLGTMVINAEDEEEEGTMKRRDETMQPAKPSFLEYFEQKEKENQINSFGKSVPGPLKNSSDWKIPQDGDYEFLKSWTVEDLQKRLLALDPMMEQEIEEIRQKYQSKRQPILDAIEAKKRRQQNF

[13] = target: T2, Serine/threonine-protein kinase 3 (Homo sapiens) (UniProt Q13188); test: Inhibition of MST2 in human NCI-H929 cells at 10 uM by mass spectroscopic analysis relative to control; assay type: cell-based
T2 sequence (whole entry): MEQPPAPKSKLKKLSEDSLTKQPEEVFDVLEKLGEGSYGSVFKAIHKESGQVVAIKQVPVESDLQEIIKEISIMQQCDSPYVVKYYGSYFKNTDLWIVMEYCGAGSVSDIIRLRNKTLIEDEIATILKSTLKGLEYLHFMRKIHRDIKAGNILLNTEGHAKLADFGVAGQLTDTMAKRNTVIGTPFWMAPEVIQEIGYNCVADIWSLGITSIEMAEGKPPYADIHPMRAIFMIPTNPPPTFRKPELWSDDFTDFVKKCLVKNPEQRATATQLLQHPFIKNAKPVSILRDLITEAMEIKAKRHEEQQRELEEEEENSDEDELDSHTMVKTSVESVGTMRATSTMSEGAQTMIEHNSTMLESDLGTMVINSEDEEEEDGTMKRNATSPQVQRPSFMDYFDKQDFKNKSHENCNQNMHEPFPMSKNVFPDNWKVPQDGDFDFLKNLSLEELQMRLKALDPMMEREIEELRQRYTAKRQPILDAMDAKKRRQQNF

[14] = target: Serine/threonine-protein kinase Nek9 (Homo sapiens) (UniProt Q8TD19); test: Inhibition of NEK9 in human NCI-H929 cells at 10 uM by mass spectroscopic analysis relative to control; assay type: cell-based
[15] = target: Phosphatidylinositol 5-phosphate 4-kinase type-2 alpha (Homo sapiens) (UniProt P48426); test: Inhibition of PIP4K2A in human NCI-H929 cells at 10 uM by mass spectroscopic analysis relative to control; assay type: cell-based
[16] = target: Phosphatidylinositol 5-phosphate 4-kinase type-2 gamma (Homo sapiens) (UniProt Q8TBX8); test: Inhibition of PIP4K2C in human NCI-H929 cells at 10 uM by mass spectroscopic analysis relative to control; assay type: cell-based
[17] = target: Cyclin-G-associated kinase (Homo sapiens) (UniProt O14976); test: Inhibition of GAK in human NCI-H929 cells at 10 uM by mass spectroscopic analysis relative to control; assay type: cell-based
[18] = target: Mitogen-activated protein kinase 1 (Homo sapiens) (UniProt P28482); test: Inhibition of ERK2 in human NCI-H929 cells at 10 uM by mass spectroscopic analysis relative to control; assay type: cell-based
[19] = target: Ribosomal protein S6 kinase alpha-3 (Homo sapiens) (UniProt P51812); test: Inhibition of RSK2 domain 1 in human NCI-H929 cells at 10 uM by mass spectroscopic analysis relative to control; assay type: cell-based
[20] = target: Maternal embryonic leucine zipper kinase (Homo sapiens) (UniProt Q14680); test: Inhibition of MELK in human NCI-H929 cells at 10 uM by mass spectroscopic analysis relative to control; assay type: cell-based
[21] = target: Mitogen-activated protein kinase kinase kinase 21 (Homo sapiens) (UniProt Q5TCX8); test: Inhibition of MLK4 in human NCI-H929 cells at 10 uM by mass spectroscopic analysis relative to control; assay type: cell-based
NCI-H929 [22] = test: Upregulation of PUMA protein level in human NCI-H929 cells at 1 uM measured after 24 hrs by Western blot analysis; assay type: functional, cell-based
NCI-H929 [23] = test: Upregulation of p21 protein level in human NCI-H929 cells at 1 uM measured after 24 hrs by Western blot analysis; assay type: functional, cell-based

Dual specificity mitogen-activated protein kinase kinase 4 (Homo sapiens), sequence (P45985 whole entry): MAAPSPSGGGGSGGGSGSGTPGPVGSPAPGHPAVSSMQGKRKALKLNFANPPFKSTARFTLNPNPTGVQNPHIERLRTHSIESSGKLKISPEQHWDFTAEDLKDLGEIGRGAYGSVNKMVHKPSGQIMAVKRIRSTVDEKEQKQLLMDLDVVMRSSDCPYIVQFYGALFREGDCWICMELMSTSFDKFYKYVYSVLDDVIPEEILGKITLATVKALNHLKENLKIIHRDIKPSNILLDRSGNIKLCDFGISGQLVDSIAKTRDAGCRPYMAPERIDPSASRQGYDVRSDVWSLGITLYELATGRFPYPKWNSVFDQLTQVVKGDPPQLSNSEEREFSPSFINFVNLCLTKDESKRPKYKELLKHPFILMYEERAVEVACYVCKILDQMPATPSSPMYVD
Casein kinase I isoform gamma-3 (Homo sapiens), sequence (Q9Y6M4 whole entry, looked up, canonical isoform): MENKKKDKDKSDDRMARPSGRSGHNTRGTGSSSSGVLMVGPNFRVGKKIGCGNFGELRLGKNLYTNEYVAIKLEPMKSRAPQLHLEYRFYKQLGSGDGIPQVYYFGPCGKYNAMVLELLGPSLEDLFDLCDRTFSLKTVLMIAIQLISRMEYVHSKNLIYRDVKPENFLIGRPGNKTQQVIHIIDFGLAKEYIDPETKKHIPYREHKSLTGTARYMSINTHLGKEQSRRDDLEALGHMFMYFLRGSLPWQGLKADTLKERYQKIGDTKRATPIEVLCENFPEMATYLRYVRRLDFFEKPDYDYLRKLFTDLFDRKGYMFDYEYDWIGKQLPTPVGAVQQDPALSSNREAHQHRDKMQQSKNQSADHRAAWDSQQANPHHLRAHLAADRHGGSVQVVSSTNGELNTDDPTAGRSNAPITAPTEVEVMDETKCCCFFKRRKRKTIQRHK
Casein kinase I isoform alpha (Homo sapiens), sequence (P48729 2-337 limits assumed): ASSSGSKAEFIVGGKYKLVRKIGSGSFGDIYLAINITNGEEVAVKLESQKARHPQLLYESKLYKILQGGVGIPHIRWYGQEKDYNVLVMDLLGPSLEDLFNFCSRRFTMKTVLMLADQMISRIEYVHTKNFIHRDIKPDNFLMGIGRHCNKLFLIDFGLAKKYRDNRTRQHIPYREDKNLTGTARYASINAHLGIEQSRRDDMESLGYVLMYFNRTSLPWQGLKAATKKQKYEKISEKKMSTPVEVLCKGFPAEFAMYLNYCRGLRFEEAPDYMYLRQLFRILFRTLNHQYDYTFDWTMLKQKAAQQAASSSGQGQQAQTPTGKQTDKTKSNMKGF
Serine/threonine-protein kinase STK11 (Homo sapiens), sequence (Q15831 whole entry): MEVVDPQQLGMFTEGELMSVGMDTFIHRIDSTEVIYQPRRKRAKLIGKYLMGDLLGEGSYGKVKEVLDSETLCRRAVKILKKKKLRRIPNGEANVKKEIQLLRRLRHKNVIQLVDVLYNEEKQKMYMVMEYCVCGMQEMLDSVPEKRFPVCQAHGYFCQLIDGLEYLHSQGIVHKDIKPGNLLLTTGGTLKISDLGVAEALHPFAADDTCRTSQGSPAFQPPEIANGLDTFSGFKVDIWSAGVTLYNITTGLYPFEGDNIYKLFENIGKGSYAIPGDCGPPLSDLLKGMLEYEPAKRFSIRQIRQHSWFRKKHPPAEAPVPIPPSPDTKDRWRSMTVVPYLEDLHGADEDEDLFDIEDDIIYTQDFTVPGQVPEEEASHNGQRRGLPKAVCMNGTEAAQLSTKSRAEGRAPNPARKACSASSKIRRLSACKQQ
Scaffold protein ILK (Homo sapiens), sequence (Q13418 whole entry): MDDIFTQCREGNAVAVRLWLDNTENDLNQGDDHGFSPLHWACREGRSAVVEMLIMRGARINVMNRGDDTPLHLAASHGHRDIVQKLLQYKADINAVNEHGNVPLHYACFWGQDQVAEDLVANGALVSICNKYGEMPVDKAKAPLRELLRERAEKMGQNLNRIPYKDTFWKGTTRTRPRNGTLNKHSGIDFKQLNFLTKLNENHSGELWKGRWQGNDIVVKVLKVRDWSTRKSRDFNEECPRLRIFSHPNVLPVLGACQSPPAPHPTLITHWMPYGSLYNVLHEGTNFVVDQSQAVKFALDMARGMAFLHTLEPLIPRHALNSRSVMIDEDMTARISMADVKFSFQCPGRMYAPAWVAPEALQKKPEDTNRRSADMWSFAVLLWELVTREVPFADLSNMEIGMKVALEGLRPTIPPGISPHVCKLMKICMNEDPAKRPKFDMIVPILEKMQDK
Phosphatidylinositol 5-phosphate 4-kinase type-2 gamma (Homo sapiens), sequence (Q8TBX8 whole entry): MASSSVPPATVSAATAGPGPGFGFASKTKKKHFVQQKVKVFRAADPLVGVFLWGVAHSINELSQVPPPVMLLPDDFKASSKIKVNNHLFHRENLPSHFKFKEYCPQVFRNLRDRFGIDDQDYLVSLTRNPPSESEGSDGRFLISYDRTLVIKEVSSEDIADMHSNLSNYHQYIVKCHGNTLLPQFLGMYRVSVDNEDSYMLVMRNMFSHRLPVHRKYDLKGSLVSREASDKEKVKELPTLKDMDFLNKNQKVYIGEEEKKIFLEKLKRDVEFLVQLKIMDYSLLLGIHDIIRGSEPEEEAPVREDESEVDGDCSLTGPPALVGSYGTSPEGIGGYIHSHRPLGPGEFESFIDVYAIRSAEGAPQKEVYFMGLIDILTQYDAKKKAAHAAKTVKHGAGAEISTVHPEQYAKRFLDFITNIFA
Mitogen-activated protein kinase kinase kinase 1 (Homo sapiens), sequence (Q13233 whole entry, the tested form may be a part): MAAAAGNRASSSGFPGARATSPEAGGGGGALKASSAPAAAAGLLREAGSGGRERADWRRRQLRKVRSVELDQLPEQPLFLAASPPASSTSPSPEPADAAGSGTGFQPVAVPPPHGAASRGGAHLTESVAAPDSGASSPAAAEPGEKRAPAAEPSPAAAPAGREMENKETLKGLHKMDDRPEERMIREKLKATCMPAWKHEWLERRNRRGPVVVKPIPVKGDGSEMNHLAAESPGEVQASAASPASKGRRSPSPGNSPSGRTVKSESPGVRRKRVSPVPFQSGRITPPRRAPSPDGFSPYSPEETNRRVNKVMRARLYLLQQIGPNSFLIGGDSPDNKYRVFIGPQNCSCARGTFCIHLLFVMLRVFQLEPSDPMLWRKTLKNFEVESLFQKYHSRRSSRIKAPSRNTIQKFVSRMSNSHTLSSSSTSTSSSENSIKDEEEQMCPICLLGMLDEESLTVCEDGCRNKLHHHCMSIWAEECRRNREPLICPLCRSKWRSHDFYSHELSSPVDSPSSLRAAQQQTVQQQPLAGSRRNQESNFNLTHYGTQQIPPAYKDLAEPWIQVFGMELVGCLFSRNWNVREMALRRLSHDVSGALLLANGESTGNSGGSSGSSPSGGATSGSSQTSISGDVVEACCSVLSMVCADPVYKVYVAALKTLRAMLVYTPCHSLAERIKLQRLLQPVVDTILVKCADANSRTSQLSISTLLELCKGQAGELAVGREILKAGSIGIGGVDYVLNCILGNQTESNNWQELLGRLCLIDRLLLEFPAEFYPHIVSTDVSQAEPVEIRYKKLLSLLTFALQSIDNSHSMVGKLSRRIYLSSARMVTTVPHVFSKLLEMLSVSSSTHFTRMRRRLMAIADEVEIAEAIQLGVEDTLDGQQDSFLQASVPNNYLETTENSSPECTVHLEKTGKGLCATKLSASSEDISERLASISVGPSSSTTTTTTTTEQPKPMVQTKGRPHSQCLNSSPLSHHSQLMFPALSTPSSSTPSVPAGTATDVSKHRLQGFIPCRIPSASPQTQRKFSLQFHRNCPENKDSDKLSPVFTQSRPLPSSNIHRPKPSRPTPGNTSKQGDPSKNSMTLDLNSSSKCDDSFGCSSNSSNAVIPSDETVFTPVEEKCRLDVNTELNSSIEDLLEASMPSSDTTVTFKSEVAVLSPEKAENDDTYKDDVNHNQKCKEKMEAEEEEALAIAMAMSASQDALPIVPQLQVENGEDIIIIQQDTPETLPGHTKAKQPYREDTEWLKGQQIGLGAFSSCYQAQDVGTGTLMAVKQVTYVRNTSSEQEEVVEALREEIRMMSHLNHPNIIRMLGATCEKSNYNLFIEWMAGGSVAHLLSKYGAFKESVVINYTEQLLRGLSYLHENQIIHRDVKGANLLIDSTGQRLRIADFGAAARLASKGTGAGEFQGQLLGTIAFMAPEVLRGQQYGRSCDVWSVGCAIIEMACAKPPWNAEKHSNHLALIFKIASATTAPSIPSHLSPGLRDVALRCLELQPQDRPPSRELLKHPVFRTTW
Ribosomal protein S6 kinase alpha-3 (Homo sapiens), sequence (P51812 whole entry, the tested form may be a part): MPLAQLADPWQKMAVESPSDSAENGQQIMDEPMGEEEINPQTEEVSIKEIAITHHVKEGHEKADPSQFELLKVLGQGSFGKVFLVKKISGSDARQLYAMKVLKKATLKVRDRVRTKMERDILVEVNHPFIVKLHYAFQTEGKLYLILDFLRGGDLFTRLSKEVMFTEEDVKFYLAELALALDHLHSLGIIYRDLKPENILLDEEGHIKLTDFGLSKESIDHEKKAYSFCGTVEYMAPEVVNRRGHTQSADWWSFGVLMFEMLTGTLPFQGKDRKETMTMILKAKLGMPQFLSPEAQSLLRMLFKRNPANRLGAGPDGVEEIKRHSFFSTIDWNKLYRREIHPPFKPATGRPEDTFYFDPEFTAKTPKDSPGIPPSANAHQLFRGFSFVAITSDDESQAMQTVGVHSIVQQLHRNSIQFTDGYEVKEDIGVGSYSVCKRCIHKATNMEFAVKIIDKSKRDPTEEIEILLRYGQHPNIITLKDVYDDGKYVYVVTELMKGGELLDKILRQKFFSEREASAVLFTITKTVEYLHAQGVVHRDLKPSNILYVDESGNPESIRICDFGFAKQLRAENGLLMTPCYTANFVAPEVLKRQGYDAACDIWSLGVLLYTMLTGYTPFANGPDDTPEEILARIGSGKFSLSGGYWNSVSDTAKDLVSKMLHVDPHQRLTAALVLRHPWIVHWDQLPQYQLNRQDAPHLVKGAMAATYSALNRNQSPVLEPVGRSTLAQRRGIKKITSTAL

- inhibition [1]: 50%
Compound: CN(C1CC1)S(=O)(=O)c1ccc(-c2cnc(N)c(-c3ccc4c(c3)CCNC4=O)c2)c(F)c1

- inhibition [2]: 75%
- inhibition [3]: 0%
- inhibition [4]: 75%
- inhibition [5]: > 90%
- inhibition [6]: 50%
- inhibition [7]: > 90%
- inhibition [8]: 0%
- inhibition [9]: 75%
- inhibition [10]: 0%
- inhibition [11]: > 90%
- inhibition [12]: 0%
- inhibition [13]: 0%
- inhibition [15]: > 90%
- inhibition [16]: 75%
- inhibition [17]: 50%
Compound: COc1cc(NS(=O)(=O)C2CC2)ccc1-c1cnc(N)c(-c2ccc3c(c2)CCNC3=O)c1
- inhibition [14]: 50%

The remaining lines, values behind:

Compound: Nc1ncc(-c2cccc3ncsc23)cc1-c1ccc2c(c1)CCNC2=O
- inhibition [18]: 50%

Compound: Nc1ncc(-c2ccc(NS(=O)(=O)C3CC3)cc2OC2CCCCC2)cc1-c1ccc2c(c1)CCNC2=O
- inhibition [19]: 50%
- inhibition [20]: 50%
- inhibition [21]: 50%

Compound: Nc1ncc(-c2cccc([N+](=O)[O-])c2F)cc1-c1ccc2c(c1)CCNC2=O
- Activity (NCI-H929 [22]): Active
- Activity (NCI-H929 [23]): Active
